# From PMC8348142, “Antimicrobial Peptide Modifications against Clinically Isolated Antibiotic-Resistant Salmonella” (Molecules, 2021)
# Marks after values point to notes of the source that are not given here. Ends that are not written are not given here.
# Experiments:
# Assay type in all cases: cell-based
# sheep red blood cells = experiment: Hemolytic activity assay; details: for percent hemolysis: 2% sRBCs in PBS, 37 °C, 1 h, OD540, triplicate mean
# Method: The peptide toxicity to the mammalian system was screened based on the hemolytic test by measuring the hemoglobin released from ruptured red blood cells (RBCs). In this study, sheep RBCs (sRBCs) were employed. They were thrice washed and prepared as a suspension in phosphate-buffered saline (PBS, Oxoid). A suspension of 2% sRBCs was incubated with 2-fold serial dilutions of peptide (final concentrations; 256 to 1 µM in a total volume of 200 µL) at 37 °C for 1 h. The solutions of 0.1% (final concentration) Triton X-100 (Sigma-Aldrich) and PBS containing the peptide solvent were used instead of the peptides as the controls of hemolysis at 100% and 0%, respectively. Thereafter, the post-incubated suspensions were centrifuged (1000× g, 3 min) to pelletize residual sRBCs. The supernatants were then transferred into a flat-bottom PS 96-well plate and were measured the absorbance at 540 nm (OD540) by a microplate reader. The test was conducted in triplicate and the mean OD540 was used to calculate the hemolysis (%) as; ((OD540 (peptide) − OD540 (PBS + peptide solvent))/(OD540 (0.1% Triton X-100) − OD540 (PBS + peptide solvent))) × 100. The hemolytic concentration 50 (HC50), a concentration inducing 50% hemolysis, was determined.
# The GraphPad Prism version 7.00 (GraphPad Software, La Jolla, CA, USA) was applied for all statistical analyses and data visualizations. Replicate quantitative results were calculated and shown as mean ± SD, unless otherwise specified. The HC50 values were determined using nonlinear regression analysis. The paired t-test and repeated measures one-way ANOVA with Tukey’s multiple comparison test were applied to compare between 2 groups and among 3 or more groups, respectively. The comparisons were considered as a statistically significant difference when a p-value < 0.05.
# [1] = test system: clinical Salmonella isolates; experiment: MIC, broth microdilution; details: MHB, 5 × 10^5 CFU/mL, 37 °C, 18 h, duplicate
# Method: (§1) All 12 isolates of Salmonella used in this study were clinical isolates and anonymous left-overs from laboratory diagnoses. They were maintained in a 20% glycerol (Sigma-Aldrich) stock at −80 °C and further cultured on Mueller-Hinton agar (MHA, Oxoid, Hampshire, UK) at 37 °C for 18 h to obtain single colonies for antimicrobial assays. This study was approved by the Ethics Committee of the Faculty of Tropical Medicine (Mahidol University, Bangkok, Thailand; MUTM-EXMPT 2017-007).
# MIC was determined using the broth microdilution method described by Hancock with some modifications. Briefly, bacterial colonies grown from the MHA were prepared in MHB (Oxoid) as a 0.5 McFarland suspension (which is equal to 1 × 10^8 CFU/mL), and was further 200-fold diluted by the MHB (5 × 10^5 CFU/mL). The bacterial suspension (50 µL) was mixed with 2-fold serial dilutions of peptide (5.5 µL) achieving final concentrations of 256 to 1 µM using a round-bottom polypropylene (PP) 96-well plate (Greiner Bio-One). The plate was incubated at 37 °C for 18 h including incubating peptide free-bacteria as positive growth control, and MHB as negative growth control. After the incubation, the lowest concentration with no visible growth was defined as a MIC value. The assay was performed in a duplicate manner.
# [2] = test system: clinical Salmonella isolates; experiment: MBC, drop plate method, and MBC/MIC mode of action; details: for MBC: drop plate on MHA from MIC plate, 37 °C, 18 h, thrice
# Method: as §1
# The plate derived from the MIC assay was immediately tested for the MBC using a drop plate method. A volume of 10 µL of the culture from individual wells at MIC, 2MIC, and 4MIC was dropped on MHA plates. […] The experiment was thrice performed.
# In order to determine whether the peptides have bacteriostatic or bactericidal activity, a ratio of MBC to MIC (MBC/MIC) was applied. The ratio >4 was indicative of bacteriostatic peptide, and ≤4 was inferred as bactericidal peptide.
sequence,measurement,setting,value
FIRRIARLLRRIF [Kn2-5R],HC50 (hemolytic concentration 50),"sheep red blood cells; concentration inducing 50% hemolysis of sRBCs, nonlinear regression, unit (µM)",886.50 µM
same,percent hemolysis,sheep red blood cells; peptide 1 µM,0%
same,percent hemolysis,sheep red blood cells; peptide 2 µM,0%
same,percent hemolysis,sheep red blood cells; peptide 4 µM,0.4%
same,percent hemolysis,sheep red blood cells; peptide 8 µM,0.7 * %
same,percent hemolysis,sheep red blood cells; peptide 16 µM,1.4%
same,percent hemolysis,sheep red blood cells; peptide 32 µM,1.5%
same,percent hemolysis,sheep red blood cells; peptide 64 µM,1.8%
same,percent hemolysis,sheep red blood cells; peptide 128 µM,2.4%
same,percent hemolysis,sheep red blood cells; peptide 256 µM,10.6%
same,concentration required for the initiation of hemolysis,"sheep red blood cells; sRBCs, 60 min, 256–1 µM tested",4 µM
same,MIC,"[1]; isolate 5 (Enteritidis, blood; resistant AMP, SXT, KZ)",8 µM
same,MIC,"[1]; isolate 7 (Typhimurium, blood; resistant AMP, CN, TE, NA, SXT)",8 µM
same,MIC,"[1]; isolate 11 (I 1,4:i:-, blood; resistant AMP, TE, NA, SXT, C)",8 µM
same,MIC,"[1]; isolate 18 (Stanley, urine; resistant TE, SXT, C)",8 µM
same,MIC,"[1]; isolate 26 (Typhimurium, urine; resistant TZP, TE, NA)",8 µM
same,MIC,"[1]; isolate 27 (Typhimurium, stool; resistant AMP, TE, NA, SXT, CIP)",8 µM
same,MIC,"[1]; isolate 55 (Typhimurium, blood; resistant AMP, SXT, C, TE)",8 µM
same,MIC,"[1]; isolate 61 (Enteritidis, blood; resistant AMP, TE, NA, SXT)",8 µM
same,MIC,"[1]; isolate 69 (Typhimurium, stool; resistant AMP)",8 µM
same,MIC,"[1]; isolate 76 (Enteritidis, CSF; resistant NA)",8 µM
same,MIC,"[1]; isolate 78 (Enteritidis, blood; resistant TE, CIP, NA, SXT)",8 µM
same,MIC,"[1]; isolate 107 (Typhimurium, stool; susceptible)",8 µM
same,GM of MBC,[2]; geometric mean over 12 clinical Salmonella isolates,8 µM
same,MBC,[2]; isolate 5 (Enteritidis),8 µM
same,MBC,[2]; isolate 7 (Typhimurium),8 µM
same,MBC,"[2]; isolate 11 (I 1,4:i:-)",8 µM
same,MBC,[2]; isolate 18 (Stanley),8 µM
same,MBC,[2]; isolate 26 (Typhimurium),8 µM
same,MBC,[2]; isolate 27 (Typhimurium),8 µM
same,MBC,[2]; isolate 55 (Typhimurium),8 µM
same,MBC,[2]; isolate 61 (Enteritidis),8 µM
same,MBC,[2]; isolate 69 (Typhimurium),8 µM
same,MBC,[2]; isolate 76 (Enteritidis),8 µM
same,MBC,[2]; isolate 78 (Enteritidis),8 µM
same,MBC,[2]; isolate 107 (Typhimurium),8 µM
